How the values were obtained:
[1] = Part B: PK of single-dose fruquintinib alone and with rifampin (CYP3A induction); assay type: in vivo, human; conditions: for MPR AUC0‐inf (metabolite‐to‐parent ratio) / MPR AUC0‐t (metabolite‐to‐parent ratio) / MPR Cmax (metabolite‐to‐parent ratio): M11 to fruquintinib; for MPR AUC0‐inf (metabolite‐to‐parent ratio) / MPR AUC0‐t (metabolite‐to‐parent ratio) / MPR Cmax (metabolite‐to‐parent ratio) / Cmax / half-life / AUC / Tmax: Part B; for MPR AUC0‐inf (metabolite‐to‐parent ratio) / MPR AUC0‐t (metabolite‐to‐parent ratio) / MPR Cmax (metabolite‐to‐parent ratio) / Cmax / half-life / AUC: arithmetic mean (SD); for Cmax / half-life / AUC / Tmax: metabolite M11 in plasma; for Cmax: read-out: Cmax; for Tmax: median (minimum‐maximum)
From the text: (§1) This was a single‐center, open‐label, 2‐part (Part A and Part B), 2‐period, fixed‐sequence study conducted in healthy male and female subjects. Parts A and B evaluated the effect of the CYP3A inhibitor itraconazole and the CYP3A inducer rifampin on the PK profile of fruquintinib, respectively. Each part consisted of a screening phase, a treatment phase (Period 1 and Period 2), and an end‐of‐study (EOS) phase. Screening occurred within 21 days before the first study drug administration. There was at least a 14‐day washout of fruquintinib between treatment periods. PK samples were collected before dosing and over 168 hours following the fruquintinib dose in Part A (with itraconazole) and Part B (with rifampin). Part A and Part B were enrolled independently.
In Part B, subjects were administered fruquintinib alone in Treatment Period 1 and in combination with rifampin in Treatment Period 2. Study Day 1 was considered as the start of Treatment Period 1, and Study Day 8 was considered as the start of Treatment Period 2. On Study Day 1, a single dose of fruquintinib 5 mg by mouth was administered under fasted conditions, and on Study Day 15, a single dose of fruquintinib 5 mg was administered by mouth under fasted conditions alongside rifampin. Starting on Study Day 8, rifampin 600 mg was dosed by mouth once daily for 14 consecutive days, 7 days before fruquintinib dosing and 6 days after fruquintinib dosing, to ensure that induction was maintained throughout the PK sampling period. Subjects therefore received rifampin from Study Day 8 to Study Day 21. Absorption of rifampin is reduced by approximately 30% when the drug is ingested with food.[13] Therefore, rifampin was administered at least 1 hour before breakfast when given alone and under fasted conditions when administered with fruquintinib. Breakfast was given at least 1 hour after the rifampin doses on Study Days 8‐14 and Study Days 16‐21. On Study Day 15, subjects received both treatments under fasted conditions, and rifampin was administered 1hour before administration of a single dose of fruquintinib 5 mg by mouth. Subjects were discharged after completion of EOS procedures on Study Day 22 or at early withdrawal.
(§2) Blood samples for determination of fruquintinib and metabolite M11 plasma concentrations were collected before dosing and at 0.5, 1, 1.5, 2, 3, 4, 6, 8, 12, 24, 36, 48, 72, 96, 120, 144, and 168 hours after fruquintinib dosing. Plasma samples were analyzed by LabCorp Bioanalytical (Indianapolis, IN) using a validated liquid chromatography with tandem mass spectrometry assay method with an analytical range of 1.00 ng/mL (lower limit of quantitation) to 750 ng/mL (upper limit of quantitation) for both fruquintinib and M11.[6] Interrun variability was 6.3% or less and 13.8% or less for fruquintinib and M11, respectively. Quality control samples at 4 concentrations (3, 30, 300, and 600 ng/mL) were assayed along with study samples, and the bias quality control sample concentrations deviated by ±2.0% and ±2.7% from the nominal concentrations for fruquintinib and M11, respectively.
PK parameters were determined by noncompartmental analysis and included maximum plasma concentration (Cmax); time to reach Cmax (tmax); area under the plasma concentration‐time curve (AUC) from time 0 to the time of the last measurable concentration (AUC0‐t); AUC from time 0 to infinity (AUC0‐inf); half‐life (t1/2); and the metabolite‐to‐parent ratios for Cmax, AUC0‐t, and AUC0‐inf. Apparent oral clearance and volume of distribution were also estimated for fruquintinib.
For Part A, the effect of itraconazole based on the PK parameters of fruquintinib was evaluated using a linear mixed‐effect model with treatment (ie, fruquintinib with itraconazole [test] and fruquintinib alone [reference]) as fixed effects and subject as a random effect. A similar inferential analysis was performed for Part B, but fruquintinib with rifampin was the test group. […]

[2] = parameters: method as in PMID 28730290; conditions: mass balance study, major circulating metabolite; cited from earlier work
[3] = Part A: PK of single-dose fruquintinib alone and with itraconazole (CYP3A inhibition); assay type: in vivo, human; conditions: for MPR AUC0‐inf (metabolite‐to‐parent ratio) / MPR AUC0‐t (metabolite‐to‐parent ratio) / MPR Cmax (metabolite‐to‐parent ratio): M11 to fruquintinib; for MPR AUC0‐inf (metabolite‐to‐parent ratio) / MPR AUC0‐t (metabolite‐to‐parent ratio) / MPR Cmax (metabolite‐to‐parent ratio) / Cmax / Tmax / half-life / AUC: Part A; for MPR AUC0‐inf (metabolite‐to‐parent ratio) / MPR AUC0‐t (metabolite‐to‐parent ratio) / MPR Cmax (metabolite‐to‐parent ratio) / Cmax / half-life / AUC: arithmetic mean (SD); for Cmax / Tmax / half-life / AUC: both sexes, human, oral, metabolite M11 in plasma; for Cmax: read-out: Cmax; for Tmax: median (minimum‐maximum); for half-life / AUC: plasma
From the text: as §1
In Part A, subjects were administered fruquintinib alone in Treatment Period 1 and in combination with itraconazole in Treatment Period 2. Study Day 1 was considered the start of Treatment Period 1, and Study Day 15 was considered the start of Treatment Period 2. On Study Day 1, subjects received a single dose of fruquintinib 5 mg by mouth under fasted conditions (subjects fasted for at least 10 hours before fruquintinib dosing and 4 hours after), and on Study Day 19 subjects received a second single dose of fruquintinib 5 mg by mouth under fasted conditions, alongside itraconazole. On Study Day 15, subjects began a regimen of itraconazole 200 mg by mouth twice a day, followed by once daily dosing on Study Days 16‐25. A dose of 200 mg was selected, with a loading dose as part of a 5‐day lead‐in (twice daily for 1 day, once daily for 4 days) to achieve appropriate inhibition of CYP3A before dosing with fruquintinib.[10] Once‐daily dosing of itraconazole for an additional 5 days throughout the fruquintinib PK sampling period was continued to maintain CYP3A inhibition.[11]
As itraconazole oral bioavailability is maximal when the capsules are taken immediately after a full meal,[12] it was administered under fed conditions except when coadministered with fruquintinib on Study Day 19. Itraconazole doses were administered 30 minutes after the start of breakfast on Study Days 15‐18 and Study Days 20‐25. On Study Day 19, subjects received both treatments under fasted conditions, and itraconazole was administered 1 hour before administration of a single dose of fruquintinib 5 mg by mouth. Subjects were discharged after completion of EOS procedures on Study Day 26 or at early withdrawal.
as §2
PK parameters were determined by noncompartmental analysis and included maximum plasma concentration (Cmax); time to reach Cmax (tmax); area under the plasma concentration‐time curve (AUC) from time 0 to the time of the last measurable concentration (AUC0‐t); AUC from time 0 to infinity (AUC0‐inf); half‐life (t1/2); and the metabolite‐to‐parent ratios for Cmax, AUC0‐t, and AUC0‐inf. Apparent oral clearance and volume of distribution were also estimated for fruquintinib. […]

[4] = fruquintinib 5 mg + rifampin 600 mg, n = 13
[5] = fruquintinib alone 5 mg, n = 13
[6] = fruquintinib alone 5 mg, n = 14
[7] = fruquintinib 5 mg + itraconazole 200 mg, n = 13
[8] = fruquintinib 5 mg + itraconazole 200 mg, n = 14
[9] = coadministration of itraconazole

COc1cc2ncnc(Oc3ccc4c(C(N)=O)c(C)oc4c3)c2cc1OC [M11]
MPR AUC0‐inf (metabolite‐to‐parent ratio) [1, 4]: 1.13 (0.269)
MPR AUC0‐t (metabolite‐to‐parent ratio) [1, 4]: 1.12 (0.266)
MPR Cmax (metabolite‐to‐parent ratio) [1, 4]: 0.312 (0.0975)
MPR AUC0‐inf (metabolite‐to‐parent ratio) [1, 5]: 0.379 (0.0944)
MPR AUC0‐t (metabolite‐to‐parent ratio) [1, 5]: 0.295 (0.0848)
MPR Cmax (metabolite‐to‐parent ratio) [1, 6]: 0.117 (0.0462)
Cmax ([1]; both sexes, human, oral, fruquintinib 5 mg + rifampin 600 mg, n = 13): 31.1 ng/mL
Cmax ([1]; both sexes, human, oral, fruquintinib alone 5 mg, n = 14): 13.7 ng/mL
half-life ([1]; both sexes, human, plasma, oral, 5 mg, fruquintinib alone 5 mg, n = 13): 71.8 h
AUC ([1]; both sexes, human, plasma, oral, 5 mg, fruquintinib alone 5 mg, n = 13, read-out: AUC0‐inf): 2160 ng·h/mL
AUC ([1]; both sexes, human, plasma, oral, 5 mg, fruquintinib alone 5 mg, n = 13, read-out: AUC0‐t): 1610 ng·h/mL
Tmax ([1]; both sexes, human, plasma, oral, 5 mg, fruquintinib alone 5 mg, n = 14, read-out: tmax): 48 h
half-life ([1]; both sexes, human, plasma, oral, fruquintinib 5 mg + rifampin 600 mg, n = 13): 25.1 h
AUC ([1]; both sexes, human, plasma, oral, fruquintinib 5 mg + rifampin 600 mg, n = 13, read-out: AUC0‐inf): 2200 ng·h/mL
AUC ([1]; both sexes, human, plasma, oral, fruquintinib 5 mg + rifampin 600 mg, n = 13, read-out: AUC0‐t): 2130 ng·h/mL
Tmax ([1]; both sexes, human, plasma, oral, fruquintinib 5 mg + rifampin 600 mg, n = 13, read-out: tmax): 23 h
increase of M11 Cmax ([1]; coadministration of fruquintinib with rifampin versus fruquintinib alone): 2.3 fold
Tmax [1, 4]: 22.9 (22.9–46.9) hour
share of total radioactivity exposure in plasma [2]: approximately 17%
MPR AUC0‐inf (metabolite‐to‐parent ratio) [3, 7]: 0.177 (0.0371)
MPR AUC0‐t (metabolite‐to‐parent ratio) [3, 8]: 0.141 (0.0301)
MPR Cmax (metabolite‐to‐parent ratio) [3, 8]: 0.0579 (0.0155)
MPR AUC0‐inf (metabolite‐to‐parent ratio) ([3]; fruquintinib alone 5 mg, n = 12): 0.336 (0.0766)
MPR AUC0‐t (metabolite‐to‐parent ratio) [3, 6]: 0.291 (0.0745)
MPR Cmax (metabolite‐to‐parent ratio) [3, 6]: 0.121 (0.0358)
Cmax [3, 8]: 6.7 ng/mL
Tmax [3, 8]: 47.9 h
Cmax [3, 6]: 15.2 ng/mL
Tmax [3, 6]: 72 h
half-life ([3]; 5 mg, fruquintinib alone 5 mg, n = 12): 58.6 h
AUC ([3]; 5 mg, fruquintinib alone 5 mg, n = 12, read-out: AUC0‐inf): 2000 ng·h/mL
AUC ([3]; 5 mg, fruquintinib alone 5 mg, n = 14, read-out: AUC0‐t): 1580 ng·h/mL
half-life [3, 7]: 70.5 h
AUC ([3]; fruquintinib 5 mg + itraconazole 200 mg, n = 13, read-out: AUC0‐inf): 1100 ng·h/mL
AUC ([3]; fruquintinib 5 mg + itraconazole 200 mg, n = 14, read-out: AUC0‐t): 816 ng·h/mL
decrease of M11 AUC0‐inf [3, 9]: 44%
decrease of M11 AUC0‐t [3, 9]: 48%
decrease of M11 Cmax [3, 9]: 55%

— publication PMC12314110, “Evaluation of Potential Effects of CYP3A Inhibition and CYP3A Induction on the Pharmacokinetics of Fruquintinib in Healthy Subjects” (Clinical Pharmacology in Drug Development, 2025)
